Test results taken from patent US10787443B2, “RAF-degrading conjugate compounds” (ZAMBONI CHEM SOLUTIONS INC., priority 2017, dated 2020).

The molecules below were run on GST-Braf kinase domain and biotinylated E3 substrate adapter (VHL/EloB/EloC complex or CRBN318-425) (assay: Dimerization assay (AlphaScreen/AlphaLisa), RAF/E3 dimerization). Details: Table 17; relative value; compounds 4 fold serial dilutions from 20 μM.
Type: binding

| Structure (SMILES) | RAF/E3 Dimerization |
| --- | --- |
| Cc1ncc(NC(=O)c2cccc(C(F)(F)F)c2)cc1-c1cnc(OCCOCCOCCOCc2cn(CCCCC(=O)N[C@@H](C(=O)N3C[C@H](O)C[C@H]3C(=O)N[C@@H](C)c3ccc(-c4scnc4C)cc3)C(C)(C)C)nn2)c(N2CCOCC2)c1 [Compound 2.009, (2S,4R)-1-((R)-3,3-dimethyl-2-(5-(4-((2-(2-(2-((2′-methyl-5-morpholino-5′-(3-(trifluoromethyl)benzamido)-[3,3′-bipyridin]-6-yl)oxy)ethoxy)ethoxy)ethoxy)methyl)-1H-1,2,3-triazol-1-yl)pentanamido)butanoyl)-4-hydroxy-N—((S)-1-(4-(4-methylthiazol-5-yl)phenyl)ethyl)pyrrolidine-2-carboxamide] | +++ (50% > RAF/E3 Dimerization ≥ 25) |
| Cc1ccc(NC(=O)c2cccc(C(F)(F)F)c2)cc1-c1cnc(OCCOCCOCCOCc2cn(CCCCCC(=O)N[C@@H](C(=O)N3C[C@H](O)C[C@H]3C(=O)N[C@@H](C)c3ccc(-c4scnc4C)cc3)C(C)(C)C)nn2)c(N2CCOCC2)c1 [Compound 2.011, (2S,4R)-1-((R)-3,3-dimethyl-2-(6-(4-((2-(2-(2-((5-(2-methyl-5-(3-(trifluoromethyl)benza-mido)phenyl)-3-morpholinopyridin-2-yl)oxy)ethoxy)ethoxy)ethoxy)methyl)-1H-1,2,3-triazol-1-yl)hexanamido)butanoyl)-4-hydroxy-N—((S)-1-(4-(4-methylthiazol-5-yl)phenyl)-ethyl)pyrrolidine-2-carboxamide] | +++++ (RAF/E3 Dimerization ≥75%) |
| Cc1ccc(NC(=O)c2cccc(C(F)(F)F)c2)cc1-c1cnc(OCCCCc2cn(CCCCCC(=O)Nc3cccc4c3C(=O)N(C3CCC(=O)NC3=O)C4=O)nn2)c(N2CCOCC2)c1 (stereo not drawn) [Compound 2.013, N-(3-(6-(4-(1-(6-((2-(2,6-dioxopiperidin-3-yl)-1,3-dioxoisoindolin-4-yl)amino)-6-oxohexyl)-1H-1,2,3-triazol-4-yl)butoxy)-5-morpholinopyridin-3-yl)-4-methylphenyl)-3-(trifluoromethyl)benzamide] | ++ (25% > RAF/E3 Dimerization ≥ 5%) |
| Cc1ncc(NC(=O)c2cccc(C(F)(F)F)c2)cc1-c1cnc(OCCOCCOCC(=O)NCCCCCc2cccc3c2CN(C2CCC(=O)NC2=O)C3=O)c(N2CCOCC2)c1 (stereo not drawn) [Compound 2.017, N-(6′-(2-(2-(2-((5-(2-(2,6-dioxopiperidin-3-yl)-1-oxoisoindolin-4-yl)pentyl)amino)-2-oxoethoxy)ethoxy)ethoxy)-2-methyl-5′-morpholino-[3,3′-bipyridin]-5-yl)-3-(trifluoromethyl)benzamide] | ++++ (75% > RAF/E3 Dimerization ≥ 50%) |
| Cc1ncc(NC(=O)c2cccc(C(F)(F)F)c2)cc1-c1cnc(OCCOCCOCCOCC(=O)NCCCCCCc2cccc3c2CN(C2CCC(=O)NC2=O)C3=O)c(N2CCOCC2)c1 (stereo not drawn) [Compound 2.018, N-(6′-((18-(2-(2,6-dioxopiperidin-3-yl)-1-oxoisoindolin-4-yl)-11-oxo-3,6,9-trioxa-12-azaoctadecyl)oxy)-2-methyl-5′-morpholino-[3,3′-bipyridin]-5-yl)-3-(trifluoromethyl)benzamide] | ++++ (75% > RAF/E3 Dimerization ≥ 50%) |
| Cc1ncc(NC(=O)c2cccc(C(F)(F)F)c2)cc1-c1cnc(OCCOCCOCC(=O)NCCOCCCc2cccc3c2CN(C2CCC(=O)NC2=O)C3=O)c(N2CCOCC2)c1 (stereo not drawn) [Compound 2.019, N-(6′-((15-(2-(2,6-dioxopiperidin-3-yl)-1-oxoisoindolin-4-yl)-8-oxo-3,6,12-trioxa-9-azapentadecyl)oxy)-2-methyl-5′-morpholino-[3,3′-bipyridin]-5-yl)-3-(trifluoromethyl)benzamide] | +++ (50% > RAF/E3 Dimerization ≥ 25) |
| Cc1ncc(NC(=O)c2cccc(C(F)(F)F)c2)cc1-c1cnc(OCCOCCOCCOCC(=O)NCCOCCCc2cccc3c2CN(C2CCC(=O)NC2=O)C3=O)c(N2CCOCC2)c1 (stereo not drawn) [Compound 2.020, N-(6′-((18-(2-(2,6-dioxopiperidin-3-yl)-1-oxoisoindolin-4-yl)-11-oxo-3,6,9,15-tetraoxa-12-azaoctadecyl)oxy)-2-methyl-5′-morpholino-[3,3′-bipyridin]-5-yl)-3-(trifluoromethyl)-benzamide] | +++ (50% > RAF/E3 Dimerization ≥ 25) |
| Cc1ncc(NC(=O)c2cccc(C(F)(F)F)c2)cc1-c1cnc(OCCOCc2cn(CCCCCC(=O)Nc3cccc4c3C(=O)N(C3CCC(=O)NC3=O)C4=O)nn2)c(N2CCOCC2)c1 (stereo not drawn) [Compound 2.022, N-(6′-(2-((1-(6-((2-(2,6-dioxopiperidin-3-yl)-1,3-dioxoisoindolin-4-yl)amino)-6-oxohexyl)-1H-1,2,3-triazol-4-yl)methoxy)ethoxy)-2-methyl-5′-morpholino-[3,3′-bipyridin]-5-yl)-3-(trifluoromethyl)benzamide] | ++ (25% > RAF/E3 Dimerization ≥ 5%) |
| Cc1ncc(NC(=O)c2cccc(C(F)(F)F)c2)cc1-c1cnc(OCCOCCOCC(=O)NCCOCCCc2cccc3c2C(=O)N(C2CCC(=O)NC2=O)C3=O)c(N2CCOCC2)c1 (stereo not drawn) [Compound 2.023, N-(6′-((15-(2-(2,6-dioxopiperidin-3-yl)-1,3-dioxoisoindolin-4-yl)-8-oxo-3,6,12-trioxa-9-azapentadecyl)oxy)-2-methyl-5′-morpholino-[3,3′-bipyridin]-5-yl)-3-(trifluoromethyl)ben-zamide] | + (5% > RAF/E3 Dimerization) |
| O=C1CCC(N2C(=O)c3cccc(NC(=O)CCCCCn4cc(CNC(=O)c5cc(Oc6ccc(NC(=O)Nc7ccc(Cl)c(C(F)(F)F)c7)cc6)ccn5)nn4)c3C2=O)C(=O)N1 (stereo not drawn) [Compound 2.024, 4-(4-(3-(4-chloro-3-(trifluoromethyl)phenyl)ureido)phenoxy)-N-((1-(6-((2-(2,6-dioxopiperidin-3-yl)-1,3-dioxoisoindolin-4-yl)amino)-6-oxohexyl)-1H-1,2,3-triazol-4-yl)methyl)picolinamide] | ++ (25% > RAF/E3 Dimerization ≥ 5%) |
| O=C1CCC(N2C(=O)c3cccc(NC(=O)CCCCCn4cc(CCNC(=O)c5cc(Oc6ccc(NC(=O)Nc7ccc(Cl)c(C(F)(F)F)c7)cc6)ccn5)nn4)c3C2=O)C(=O)N1 (stereo not drawn) [Compound 2.025, 4-(4-(3-(4-chloro-3-(trifluoromethyl)phenyl)ureido)phenoxy)-N-(2-(1-(6-((2-(2,6-dioxopiperidin-3-yl)-1,3-dioxoisoindolin-4-yl)amino)-6-oxohexyl)-1H-1,2,3-triazol-4-yl)ethyl)picolinamide] | ++ (25% > RAF/E3 Dimerization ≥ 5%) |
| O=C1CCC(N2C(=O)c3cccc(NC(=O)CCCCCn4cc(CCCCNC(=O)c5cc(Oc6ccc(NC(=O)Nc7ccc(Cl)c(C(F)(F)F)c7)cc6)ccn5)nn4)c3C2=O)C(=O)N1 (stereo not drawn) [Compound 2.026, 4-(4-(3-(4-chloro-3-(trifluoromethyl)phenyl)ureido)phenoxy)-N-(4-(1-(6-((2-(2,6-dioxopiperidin-3-yl)-1,3-dioxoisoindolin-4-yl)amino)-6-oxohexyl)-1H-1,2,3-triazol-4-yl)butyl)picolinamide] | + (5% > RAF/E3 Dimerization) |

Now from value to molecule:

| RAF/E3 Dimerization | Structure (SMILES) |
| --- | --- |
| ++ (25% > RAF/E3 Dimerization ≥ 5%) | O=C1CCC(N2C(=O)c3cccc(NC(=O)CCCCCn4cc(COCCOCCOCCNC(=O)c5cc(Oc6ccc(NC(=O)Nc7ccc(Cl)c(C(F)(F)F)c7)cc6)ccn5)nn4)c3C2=O)C(=O)N1 (stereo not drawn) [Compound 2.027, 4-(4-(3-(4-chloro-3-(trifluoromethyl)phenyl)ureido)phenoxy)-N-(2-(2-(2-((1-(6-((2-(2,6-dioxopiperidin-3-yl)-1,3-dioxoisoindolin-4-yl)amino)-6-oxohexyl)-1H-1,2,3-triazol-4-yl)methoxy)ethoxy)ethoxy)ethyl)picolinamide] |
| ++ (25% > RAF/E3 Dimerization ≥ 5%) | O=C1CCC(N2C(=O)c3cccc(NC(=O)CCCCCn4cc(COCCOCCOCCOCCOCCNC(=O)c5cc(Oc6ccc(NC(=O)Nc7ccc(Cl)c(C(F)(F)F)c7)cc6)ccn5)nn4)c3C2=O)C(=O)N1 (stereo not drawn) [Compound 2.028, 4-(4-(3-(4-chloro-3-(trifluoromethyl)phenyl)ureido)phenoxy)-N-(1-(1-(6-((2-(2,6-dioxopiperidin-3-yl)-1,3-dioxoisoindolin-4-yl)amino)-6-oxohexyl)-1H-1,2,3-triazol-4-yl)-2,5,8,11,14-pentaoxahexadecan-16-yl)picolinamide] |
| + (5% > RAF/E3 Dimerization) | O=C1CCC(N2C(=O)c3cccc(CCCOCCNC(=O)c4cc(Oc5ccc(NC(=O)Nc6ccc(Cl)c(C(F)(F)F)c6)cc5)ccn4)c3C2=O)C(=O)N1 (stereo not drawn) [Compound 2.029, 4-(4-(3-(4-chloro-3-(trifluoromethyl)phenyl)ureido)phenoxy)-N-(2-(3-(2-(2,6-dioxopiperidin-3-yl)-1,3-dioxoisoindolin-4-yl)propoxy)ethyl)picolinamide] |
| ++ (25% > RAF/E3 Dimerization ≥ 5%) | O=C1CCC(N2C(=O)c3cccc(CCCOCCOCCNC(=O)c4cc(Oc5ccc(NC(=O)Nc6ccc(Cl)c(C(F)(F)F)c6)cc5)ccn4)c3C2=O)C(=O)N1 (stereo not drawn) [Compound 2.030, 4-(4-(3-(4-chloro-3-(trifluoromethyl)phenyl)ureido)phenoxy)-N-(2-(2-(3-(2-(2,6-dioxopiperidin-3-yl)-1,3-dioxoisoindolin-4-yl)propoxy)ethoxy)ethyl)picolinamide] |
| + (5% > RAF/E3 Dimerization) | O=C1CCC(N2Cc3c(CCCCCCNC(=O)c4cc(Oc5ccc(NC(=O)Nc6ccc(Cl)c(C(F)(F)F)c6)cc5)ccn4)cccc3C2=O)C(=O)N1 (stereo not drawn) [Compound 2.031, 4-(4-(3-(4-chloro-3-(trifluoromethyl)phenyl)ureido)phenoxy)-N-(6-(2-(2,6-dioxopiperidin-3-yl)-1-oxoisoindolin-4-yl)hexyl)picolinamide] |
| + (5% > RAF/E3 Dimerization) | O=C1CCC(N2Cc3c(CCCOCCNC(=O)c4cc(Oc5ccc(NC(=O)Nc6ccc(Cl)c(C(F)(F)F)c6)cc5)ccn4)cccc3C2=O)C(=O)N1 (stereo not drawn) [Compound 2.032, 4-(4-(3-(4-chloro-3-(trifluoromethyl)phenyl)ureido)phenoxy)-N-(2-(3-(2-(2,6-dioxopiperidin-3-yl)-1-oxoisoindolin-4-yl)propoxy)ethyl)picolinamide] |
